According to US11059821B2, “1H-pyrrolo[2,3-c]pyridin-7(6H)-ones and pyrazolo[3,4-c]pyridin-7(6H)-ones as inhibitors of BET proteins” (Incyte Corporation, priority 2014, dated 2021):

These molecules were tested on KMS.12.BM cell line (human myeloma) (assay: KMS.12.BM cell viability assay). Details: 72 h, 3 days, ATP quantitation (Cell Titer-GLO), concentration for 50% cell death.
Format: cell-based
Method: KMS.12.BM cell line (human myeloma) was purchased from JCRB (Osaka, Japan) and maintained in RPMI with 10% FBS culture medium. To measure the cytotoxic activity of the compounds through ATP quantitation, the KMS. 12.BM cells are plated in the RPMI culture medium at 5000 cells/well/per 100 μL into a 96-well polystyrene clear black tissue culture plate (Greiner-bio-one through VWR, NJ), in the presence or absence of a concentration range of test compounds. After 3 days, […] Cell Titer-GLO Luminescent (Promega, Madison, Wis.) cell culture agent is added to each well for 10 minutes at room temperature to stabilize the luminescent signal. This determines the number of viable cells in culture based on quantitation of the ATP present, which signals the presence of metabolically active cells. Luminescence is measured with the Top Count 384 (Packard Bioscience through Perkin Elmer, Boston, Mass.). Compound inhibition is determined relative to cells cultured with no drug and the IC50 is reported as the compound concentration required for 50% cell death.
`CC(=O)c1cc2c(c(-c3cn(C)c(=O)c4[nH]ccc34)c1)OC(C)(C)C(=O)N2` [Example 80, 6-acetyl-2,2-dimethyl-8-(6-methyl-7-oxo-6,7-dihydro-1H-pyrrolo[2,3-c]pyridin-4-yl)-2H-1,4-benzoxazin-3(4H)-one] showed an IC50 of no more than 1000 nM. `CC(=O)c1cc(-c2cn(C)c(=O)c3[nH]ccc23)c2c(c1)N(C)C(=O)C(C)(C)O2` [Example 82, 6-acetyl-2,2,4-trimethyl-8-(6-methyl-7-oxo-6,7-dihydro-1H-pyrrolo[2,3-c]pyridin-4-yl)-2H-1,4-benzoxazin-3(4H)-one] showed an IC50 of no more than 1000 nM. `Cn1cc(-c2cc(S(C)(=O)=O)cc3c2OC(c2ccccc2)C(=O)N3)c2cc[nH]c2c1=O` (stereo not shown) [Example 46, 8-(6-methyl-7-oxo-6,7-dihydro-1H-pyrrolo[2,3-c]pyridin-4-yl)-6-(methylsulfonyl)-2-phenyl-2H-1,4-benzoxazin-3(4H)-one] was tested, and the IC50 was no more than 1000 nM. With `CC(=O)c1cc2c(c(-c3cn(C)c(=O)c4[nH]ccc34)c1)OC(C(C)C)C(=O)N2` (stereo not shown) [Example 49, 6-acetyl-2-isopropyl-8-(6-methyl-7-oxo-6,7-dihydro-1H-pyrrolo[2,3-c]pyridin-4-yl)-2H-1,4-benzoxazin-3(4H)-one] the IC50 was no more than 1000 nM.
